Here are results for 21 compounds from patent publication US10385037B2, “4′-O-substituted isoindoline derivatives and compositions comprising and methods of using the same” (Celgene Corporation, priority 2007, dated 2019).

Where only a bound is given, the exact number is not on record here.

The melting point is the temperature, or range, at which the solid turns liquid.

In turn, `O=C1CCC(N2C(=O)c3cccc(OCc4cccc(Cl)c4)c3C2=O)C(=O)N1` (stereo not drawn) [Example 4, 4-(3-Chloro-benzyloxy)-2-(2,6-dioxo-piperidin-3-yl)-isoindole-1,3-dione] showed a melting point of 249 to 251 °C. To `O=C1CCC(N2C(=O)c3cccc(OCc4sc5ccccc5c4Cl)c3C2=O)C(=O)N1` (stereo not drawn) [Example 20, 4-(3-Chloro-benzo[b]thiophen-2-ylmethoxy)-2-(2,6-dioxo-piperidin-3-yl)-isoindole-1,3-dione] belongs 240 to 242 °C. Regarding `CC(Oc1cccc2c1C(=O)N(C1CCC(=O)NC1=O)C2=O)c1ccc2ccccc2c1` (stereo not drawn) [Example 23, 2-(2,6-Dioxo-piperidin-3-yl)-4-(1-naphthalen-2-yl-ethoxy)-isoindole-1,3-dione], the melting point is 174 to 176 °C. To `COc1ccc(COc2cccc3c2C(=O)N(C2CCC(=O)NC2=O)C3=O)cc1` (stereo not drawn) [Example 24, 2-(2,6-Dioxo-piperidin-3-yl)-4-(4-methoxy-benzyloxy)-isoindole-1,3-dione] belongs 178 to 180 °C; to `O=C1CCC(N2C(=O)c3cccc(OCc4cc(Cl)cc(Cl)c4)c3C2=O)C(=O)N1` (stereo not drawn) [Example 7, 4-(3,5-Dichloro-benzyloxy)-2-(2,6-dioxo-piperidin-3-yl)-isoindole-1,3-dione], 278 to 280 °C; to `CS(=O)(=O)c1ccc(COc2cccc3c2C(=O)N(C2CCC(=O)NC2=O)C3=O)cc1` (stereo not drawn) [Example 11, 2-(2,6-Dioxo-piperidin-3-yl)-4-(4-methanesulfonyl-benzyloxy)-isoindole-1,3-dione], 293 to 295 °C. As for `O=C1CCC(N2C(=O)c3cccc(OCc4ccc(Cl)c(Cl)c4)c3C2=O)C(=O)N1` (stereo not drawn) [Example 6, 4-(3,4-Dichloro-benzyloxy)-2-(2,6-dioxo-piperidin-3-yl)-isoindole-1,3-dione], the melting point was in the range of 245 to 247 °C.

For `O=C1CCC(N2C(=O)c3cccc(OCc4ccc5c(c4)OCO5)c3C2=O)C(=O)N1` (stereo not drawn) [Example 13, 4-(Benzo[1,3]dioxol-5-ylmethoxy)-2-(2,6-dioxo-piperidin-3-yl)-isoindole-1,3-dione], the melting point lay within 229 to 231 °C. Turning to `O=C1CCC(N2C(=O)c3cccc(OCc4cc5ccccc5o4)c3C2=O)C(=O)N1` (stereo not drawn) [Example 17, 4-(Benzofuran-2-ylmethoxy)-2-(2,6-dioxo-piperidin-3-yl)-isoindole-1,3-dione], the melting point lay within 234 to 236 °C.

`Cc1cccc(COc2cccc3c2C(=O)N(C2CCC(=O)NC2=O)C3=O)c1` (stereo not drawn) [Example 10, 2-(2,6-Dioxo-piperidin-3-yl)-4-(3-methyl-benzyloxy)-isoindole-1,3-dione]: the melting point is 195 to 197 °C. To `O=C1CCC(N2C(=O)c3cccc(OCc4cc5ccccc5s4)c3C2=O)C(=O)N1` (stereo not drawn) [Example 18, 4-(Benzo[b]thiophen-2-ylmethoxy)-2-(2,6-dioxo-piperidin-3-yl)-isoindole-1,3-dione] belongs 247 to 249 °C; to `O=C1CCC(N2C(=O)c3cccc(OCc4ccc(Cl)cc4)c3C2=O)C(=O)N1` (stereo not drawn) [Example 5, 4-(4-Chloro-benzyloxy)-2-(2,6-dioxo-piperidin-3-yl)-isoindole-1,3-dione], 239 to 241 °C. The same measure for `O=C1CCC(N2C(=O)c3cccc(OCc4ccco4)c3C2=O)C(=O)N1` (stereo not drawn) [Example 19, 2-(2,6-Dioxo-piperidin-3-yl)-4-(furan-2-ylmethoxy)-isoindole-1,3-dione]: 184 to 186 °C. For the compound `COc1cccc(COc2cccc3c2C(=O)N(C2CCC(=O)NC2=O)C3=O)c1` (stereo not drawn) [Example 12, 2-(2,6-Dioxo-piperidin-3-yl)-4-(3-methoxy-benzyloxy)-isoindole-1,3-dione], the melting point fell in the range of 197 to 201 °C. The same measure for `O=C1CCC(N2C(=O)c3cccc(OCc4cccc(F)c4)c3C2=O)C(=O)N1` (stereo not drawn) [Example 8, 4-(3-Fluoro-benzyloxy)-2-(2,6-dioxo-piperidin-3-yl)-isoindole-1,3-dione]: 241 to 243 °C. As to `O=C1CCC(N2C(=O)c3cccc(OCc4cc5c(F)cccc5s4)c3C2=O)C(=O)N1` (stereo not drawn) [Example 21, 2-(2,6-Dioxo-piperidin-3-yl)-4-(4-fluoro-benzo[b]thiophen-2-ylmethoxy)-isoindole-1,3-dione], the melting point fell in the range of 264 to 266 °C. The same measure for `O=C1CCC(N2C(=O)c3cccc(OCc4cnc5ccccc5c4)c3C2=O)C(=O)N1` (stereo not drawn) [Example 15, 2-(2,6-Dioxo-piperidin-3-yl)-4-(quinolin-3-ylmethoxy)-isoindole-1,3-dione]: 263 to 265 °C; for `O=C1CCC(N2C(=O)c3cccc(OCc4cccc(Br)c4)c3C2=O)C(=O)N1` (stereo not drawn) [Example 9, 4-(3-Bromo-benzyloxy)-2-(2,6-dioxo-piperidin-3-yl)-isoindole-1,3-dione]: 246 to 248 °C. The same measure for `O=C1CCC(N2C(=O)c3cccc(OCc4ccc(Cl)s4)c3C2=O)C(=O)N1` (stereo not drawn) [Example 22]: 217 to 219 °C; for `O=C1CCC(N2C(=O)c3cccc(OCc4ccc5ccccc5n4)c3C2=O)C(=O)N1` (stereo not drawn) [Example 16, 2-(2,6-Dioxo-piperidin-3-yl)-(quinolin-2-ylmethoxy)-isoindole-1,3-dione]: 254 to 256 °C; for `O=C1CCC(N2C(=O)c3cccc(OCc4ccc5ccccc5c4)c3C2=O)C(=O)N1` (stereo not drawn) [Example 14, 2-(2,6-Dioxo-piperidin-3-yl)-(naphthalene-2-ylmethoxy)-isoindole-1,3-dione]: greater than 260 °C.
